# In patent US20240124442A1, “TRICYCLIC-AMIDO-BICYCLIC PRMT5 INHIBITORS” (AMGEN INC., priority 2021, published 2024):
# Columns and labels:
# HCT116 WT cells = experiment: HCT116 WT (parent) cell line proliferation / cell viability (CellTiter-Glo, 6 days); assay type: cell-based; conditions: Homo sapiens, HCT-116, 144 h, 6 days treatment
# Summary of the method: (§1)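 Isogenic HCT116 parent and MTAP-knockout cells in RPMI 1640 + 10% FBS, plated overnight, then exposed to compound for 6 days (37 °C, 5% CO2). Viability by CellTiter-Glo luminescence. Dilutions: 8–9 points from 1 or 10 μM (1:3), or 22 points from 10 or 50 μM (1:2); IC50 by 4-parameter or Hill −1 fit.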
# HCT116 MTAP null cells = experiment: HCT116 MTAP null cell line proliferation / cell viability (CellTiter-Glo, 6 days); assay type: cell-based; conditions: 144 h; HCT116 MTAP null cells, 6 days treatment, CellTiter-Glo cell viability; read-out: HCT-116 MTAP null IC50
# Summary of the method: as §1
Compound,IC50 (HCT116 WT cells) [nM],IC50 (HCT116 MTAP null cells) [nM]
"CN(C(=O)c1cc2c3c(c(N)nc2cn1)COC3)[C@@H]1COc2cc(OC(F)(F)F)ccc21 [Example 206, 4-amino-N-methyl-N-((3S)-6-(trifluoromethoxy)-2,3-dihydro-1-benzofuran-3-yl)-1,3-dihydrofuro[3,4-c][1,7]-naphthyridine-8-carboxamide]",9790,100
"CN(C(=O)c1cc2c3c(c(N)nc2cn1)COC3)[C@H]1COc2cc(OC(F)(F)F)ccc21 [Example 207, 4-amino-N-methyl-N-((3R)-6-(trifluoromethoxy)-2,3-dihydro-1-benzofuran-3-yl)-1,3-dihydrofuro[3,4-c][1,7]-naphthyridine-8-carboxamide]",23200,6060
"CN(C(=O)c1cc2c3c(c(N)nc2cn1)COC3)[C@@H]1COc2cc(Cl)c(Cl)cc21 [Example 209, 4-amino-N-((3S)-5,6-dichloro-2,3-dihydro-1-benzofuran-3-yl)-N-methyl-1,3-dihydrofuro[3,4-c][1,7]naphthyridine-8-carbox-amide]",3000,61
"CN(C(=O)c1cc2c3c(c(N)nc2cn1)COC3)[C@H]1COc2cc(Cl)c(Cl)cc21 [Example 210, 4-amino-N-((3R)-5,6-dichloro-2,3-dihydro-1-benzofuran-3-yl)-N-methyl-1,3-dihydrofuro[3,4-c][1,7]naphthyridine-8-carbox-amide]",25300,2370
"CN(C(=O)c1cc2c3c(c(N)nc2cc1F)COC3)C1COc2ncc(C(F)(F)F)cc21 [Example 212, 4-amino-7-fluoro-N-methyl-N-((3R)-5-(trifluoromethyl)-2,3-dihydrofuro[2,3-b]pyridin-3-yl)-1,3-dihydrofuro[3,4-c]-quinoline-8-carboxamide and 4-amino-7-fluoro-N-methyl-N-((3S)-5-(trifluoromethyl)-2,3-dihydrofuro[2,3-b]pyridin-3-yl)-1,3-dihydrofuro[3,4-c]quin-oline-8-carboxamide]",10700,495
"CN(C(=O)c1ccc2nc(N)c3ncncc3c2c1)[C@@H]1COc2cc(C(F)(F)F)ccc21 [Example 221, 5-amino-N-methyl-N-((3S)-6-(trifluoromethyl)-2,3-dihydro-1-benzofuran-3-yl)pyrimido-[4,5-c]quinoline-9-carboxamide]",4290,590
"Cc1nccc2c(N)nc3ccc(C(=O)N(C)[C@@H]4COc5cc(C(F)(F)F)ccc54)cc3c12 [Example 222, 5-amino-N,1-dimethyl-N-((3S)-6-(trifluoromethyl)-2,3-dihydro-1-benzofuran-3-yl)benzo[c][2,6]-naphthyridine-9-carboxamide]",3910,280
"CN(C(=O)c1cc2c(cn1)nc(N)c1ncncc12)[C@@H]1COc2cc(C(F)(F)F)ccc21 [Example 224, 5-amino-N-methyl-N-((3S)-6-(trifluoromethyl)-2,3-dihydro-1-benzofuran-3-yl)pyrimido-[4,5-c][1,7]naphthyridine-9-carboxamide]",3600,424
"Cc1noc2c1c(N)nc1cc(F)c(C(=O)N(C)[C@@H]3COc4cc(C(F)(F)F)ccc43)cc12 [Example 225, 4-amino-7-fluoro-N,3-dimeth-yl-N-((3S)-6-(trifluoromethyl)-2,3-dihydro-1-benzofuran-3-yl)[1,2]oxazolo[4,5-c]quin-oline-8-carboxamide]",4940,403
"CCN(C(=O)c1ccc2nc(N)c3cnn(C)c3c2c1)[C@H]1COc2cc(C(F)(F)F)ccc21 [Example 229, 4-amino-N-ethyl-1-methyl-N-((3R)-6-(trifluoromethyl)-2,3-dihydro-1-benzofuran-3-yl)-1H-pyrazolo[4,3-c]quinoline-8-carboxamide]",7740,265

# Now those with a lower IC50 (HCT116 WT cells), led by results:
IC50 (HCT116 WT cells) [nM],IC50 (HCT116 MTAP null cells) [nM],Compound
1460,28,"C[C@H]1OCc2c1c(N)nc1cnc(C(=O)N(C)[C@@H]3COc4cc(C(F)(F)F)ccc43)cc21 [Example 211, (3R)-4-amino-N,3-dimethyl-N-((3S)-6-(trifluoromethyl)-2,3-dihydro-1-benzofuran-3-yl)-1,3-dihydrofuro[3,4-c][1,7]-naphthyridine-8-carboxamide]"
2060,29,"CN(C(=O)c1cc2c3c(c(N)nc2cc1F)COC3)[C@@H]1COc2cc(-c3cnn(C)c3)ccc21 [Example 214, 4-amino-7-fluoro-N-methyl-N-((3S)-6-(1-methyl-1H-pyrazol-4-yl)-2,3-dihydro-1-benzofuran-3-yl)-1,3-dihydrofuro[3,4-c]-quinoline-8-carboxamide]"
1020,10,"C[C@H]1OCc2c1c(N)nc1cc(F)c(C(=O)N(C)[C@@H]3COc4cc(-c5cnn(C)c5)ccc43)cc21 [Example 217, (3R)-4-amino-7-fluoro-N,3-dimethyl-N-((3S)-6-(1-methyl-1H-pyrazol-4-yl)-2,3-dihydro-1-benzofuran-3-yl)-1,3-dihydrofuro[3,4-c]quinoline-8-carboxamide]"
838,13,"CN(C(=O)c1cc2c3c(c(N)nc2cc1C#N)COC3)[C@@H]1COc2cc(C(F)(F)F)ccc21 [Example 218, 4-amino-7-cyano-N-methyl-N-((3S)-6-(trifluoromethyl)-2,3-dihydro-1-benzofuran-3-yl)-1,3-dihydrofuro[3,4-c]quin-oline-8-carboxamide]"
2770,105,"CN(C(=O)c1ccc2nc(N)c3c(c2c1)CSC3)[C@@H]1COc2cc(C(F)(F)F)ccc21 [Example 219, 4-amino-N-methyl-N-((3S)-6-(trifluoromethyl)-2,3-dihydro-1-benzofuran-3-yl)-1,3-dihydrothieno[3,4-c]quinoline-8-carboxamide]"
432,18,"CN(C(=O)c1ccc2nc(N)c3ccncc3c2c1)[C@@H]1COc2cc(C(F)(F)F)ccc21 [Example 220, 5-amino-N-methyl-N-((3S)-6-(trifluoromethyl)-2,3-dihydro-1-benzofuran-3-yl)-benzo[c][2,6]naphthyridine-9-carboxamide]"
437,23,"CN(C(=O)c1cc2c(cn1)nc(N)c1ccncc12)[C@@H]1COc2cc(C(F)(F)F)ccc21 [Example 223, 5-amino-N-methyl-N-((3S)-6-(trifluoromethyl)-2,3-dihydro-1-benzofuran-3-yl)pyrido[4,3-c][1,7]naphthyridine-9-carboxamide]"
1480,19,"CN(C(=O)c1ccc2nc(N)c3cnn(C)c3c2c1)[C@@H]1COc2cc(C(F)(F)F)ncc21 [Example 227, 4-amino-N,1-dimethyl-N-((3S)-6-(trifluoromethyl)-2,3-dihydrofuro[3,2-c]pyridin-3-yl)-1H-pyrazolo[4,3-c]-quinoline-8-carboxamide]"
530,7,"CN(C(=O)c1ccc2nc(N)c3cnn(C)c3c2c1)[C@@H]1COc2cc(OC(F)(F)F)ccc21 [Example 230, 4-amino-N,1-dimethyl-N-((3S)-6-(trifluoromethoxy)-2,3-dihydro-1-benzofuran-3-yl)-1H-pyrazolo[4,3-c]quinoline-8-carboxamide]"
2060,215,"CN(C(=O)c1ccc2nc(N)c3cnn(C)c3c2c1)[C@@H]1COc2cc(C(F)(F)F)cc(Cl)c21 [Example 231, 4-amino-N-((3S)-4-chloro-6-(trifluoromethyl)-2,3-dihydro-1-benzofuran-3-yl)-N,1-dimethyl-1H-pyrazolo[4,3-c]-quinoline-8-carboxamide]"
